Entries after “also recorded” stand apart in the source; their conditions may differ.
Assays:
LPS and MPTP PD models = details: cited from earlier work
[1] = system: methadone-maintained male inpatients; details: DM at high doses (120, 240, 480 mg/day in increasing order); cited from earlier work
[2] = system: subjects with opioid dependence; assay: Double-blind DM add-on to methadone maintenance therapy, 12 weeks: methadone dose and urine opioid
[3] = system: plasma TNF-alpha, CRP, IL-1beta, IL-6, IL-8, BDNF; assay: Plasma immunological markers (ELISA) in the DM add-on methadone trial; type: in vivo, human; details: for plasma TNF-alpha concentration: FIG. 3
Procedure: • Human Cytokine Array I (Ray Biotech Inc., Norcross, Ga.) consisted of 23 different cytokine and chemokine antibodies spotted in duplicate onto a membrane (Dvorakova et al. 2004). The membranes were blocked with 10% bovine serum albumin in Tris-buffered saline according to the instructions of the manufacturer. One and a half milliliters of conditioned medium was added to each membrane in separate wells of a six-well plate. The membranes were shaken at 110 rpm at room temperature for an hour and a half. All washes were done in new six-well plates, according to the instructions of the manufacturer. Two milliliters of a 1:500 dilution of biotinconjugated antibodies was added to each membrane, and the mixture was incubated on a shaker for an hour and a half at room temperature. Following the wash, the membranes were incubated with a 1:40,000 dilution of strepavidin-conjugated peroxidase for 1 hour at room temperature, according to the instructions of the manufacturer. Following a thorough wash, the membranes were exposed to a peroxidase substrate (ChemGlow West; Alphalnnotech Corp., San Leandro, Calif.) for 5 min in the dark before imaging. Two or six individual membranes were placed side-by-side in a plastic protective folder and sealed. Imaging was done with a UVP AutoChemi imaging system within 30 min of exposure to the substrate. Exposure times ranged from 1 to 10 min. Chemiluminescence was quantified with LabWorks imaging and analysis software. Horseradish peroxidase (HRP)-conjugated antibody served as a positive substrate control at six spots and was also used to identify membrane orientation. For each spot the net density gray level was determined by subtracting the background gray levels from the total raw density gray levels. The relative fold difference in cytokine amount was determined in reference to the amount present on the control culture membrane based on the following: average treated culture cytokine spot gray levels/average control culture cytokine spot gray levels. 2. ELISA • Cytokine was quantified by using the Flexia antibody pair system (Bio-Source Intl., Camarillo, Calif.). Basically, the enzyme-linked immunosorbent assays (ELISAs) were optimized by using 96-well plates (MaxiSorp; Nalge Nunc International Corp., Naperville, Ill.) coated with 100 μl of strepavidin (Sigma, St. Louis, Mo.) at 5 μg/ml in water overnight at 37° C. or until all water was evaporated. All plates were stored desiccated at 4° C. until use. Biotinylated F(ab)2 coating antibody (5 μg/ml) was added to each well, and the plate was incubated at 37° C. for 2 hours. All wells were blocked and washed according to the instructions of the manufacturer. Standards or samples (100 μl) were added to the wells, and the plates were incubated at 37° C. for 1 hour. HRP-conjugated antibody (10 μg/ml) was added for an additional hour at 37° C. The plates were then washed thoroughly according to the instructions of the manufacturer. One hundred microliters of tetramethlybenzidine substrate (Roche, Indianapolis, Ind.) was added to each well, and the plates were held for 30 min in the dark. The reaction was stopped by the addition of 100 μl of 2 NH2SO4 to each well. The absorbance was read on an automated plate reader (Tecan U.S. Inc.) at 450 nm (reference wavelength, 650 nm). Values (in picograms per milliliter) were calculated from a standard curve. Samples were diluted up to 1:20, depending on the concentration.
The immunological parameters, C-reactive protein, TNF-α and interleukins was measured in the blood samples taken at Screen, week 1, week 4, week 8 and at the end of the study.

[4] = system: subjects with bipolar I or II disorder; assay: Double-blind DM add-on to valproate, 12 weeks: YMRS, HDRS, CGI; type: in vivo, human; details: for YMRS score: DM 60 mg/day add-on to VPA
Excerpt: Totally 292 male and female subjects with bipolar I or II disorder, from the Department of Psychiatry at National Cheng Kung University Hospital and National Defense Medical Center were recruited. […] The Institutional Review Board for the Protection of Human Subjects approved the study protocol by both medical centers.
The add-on double-blind study treatment with DM/place was commenced at randomization for 12 weeks while patients continue open-label VPA. Subjects were randomized to either with 60 mg per day of DM or placebo at Baseline and proceeded to double-blind Add-On Treatment. The treatment response and side effect were measured to clarify the curative effect of DM add-on therapy to VPA in the treatment of bipolar disorders. […] Concomitant benzodiazepine medication (preferably up to 8 mg lorazepam) was used for daytime sedation, agitation or insomnia during the study. Risperidone 1-6 mg/daily and fluoxetine 20 mg/daily were permitted during manic or depressive stage, and anticholinergic drug was also used for the extrapyramidal syndrome (EPS).
The Chinese version of the modified SADS-L, a semi-structured interview aimed at formulating the main diagnoses based upon DSM-IV criteria with good inter-rater reliability. This modified version of SADS-L with its diagnoses was used as the gold standard. The severity of current symptoms was assessed by using the YMRS and HDRS. The diagnoses of a mood disorder were made according to DSM-IV criteria, except for bipolar II disorder, where the duration criterion for hypomania of 4 days was left out but 2-day cutoff for hypomania was used instead, because the 4 days minimum duration might not be based on data and the newly adopted cutoff had been supported by several previous reports. The side effect was measured using Clinical Global Impression (CGI) at each visit point.
(§1) All of the above, vital sign, and immunological markers were measured at baseline, 1, 2, 4, 8 and 12 weeks. For the 30 subjects of health control were also recruited for comparing the immune markers. The degree of benefit on symptoms after the week 4, 8 and end of treatment due to add-on DM treatment to VPA in comparison with placebo using a main measure of total psychopathology. The safety and tolerability and measure and assess the changes of immunology, and clinical features between the group with add-on DM treatment with placebo from Baseline to the end of study were compared.
For each scale, data were analyzed using last observation carried forward (LOCF) method, in which the last observation was entered for missing visits. To assess the efficacy in various clinical domains and take into account patient effects, mixed-effects models (Lange & Ryan 1989) were used (with intercept as the random effects) for all normally distributed outcomes, with main effects for treatment (DM or placebo), time (0, 1, 2, 4, 8, 12 weeks), and the treatment×time interaction. The analysis of the response rate was intent to treat. All hypothesis tests were 2-sided and were conducted at α=0.05. The post hoc of independent t test was then used to examine which time point the effect of add-on treatment started. P<0.05 was considered statistically significant for all two-sided tests. Statistical analyses were carried out using SPSS for windows (version 15.0).

[5] = system: rat primary mixed mesencephalic neuron-glia cultures; details: cited from earlier work
[6] = system: plasma TNF-α, IL-1β, IL-8, CRP, BDNF; assay: Plasma cytokine level (ELISA) in the DM add-on valproate trial; type: in vivo, human
Procedure: Blood routine, SGOT, SGPT, BUN and creatinine were measured only while the samples were taken at screen and at the end of the study. Plasma cytokine was quantified using the enzyme-linked immunosorbent assays (ELISAs). The Quantikine Human cytokine kit (R&D system), and Molecular Devices (SpectraMax-M2) ELISA reader were used to analyze the plasma cytokine level. The immunological parameters, BDNF, TNF-α, and interleukins were measured in the blood samples. The low limit sensitivity was 0.5 pg/ml, 0.125 pg/ml and 62.5 pg/ml for TNF-α, IL-1β and BDNF respectively. Finally, we used HPLC with UV detector to measure the plasma DM level.
as §1

[7] = BP subjects, after 12 weeks depakine add-on dextromethorphan vs pretest, FIG. 11
[8] = normal controls vs BP subjects, before and after treatment (data not shown)

COc1ccc2c(c1)[C@]13CCCC[C@@H]1[C@H](C2)N(C)CC3 [DM, Dextromethorphan]
protective effect in animal PD models (LPS and MPTP PD models): potent protective effect | effects on heart rate, blood pressure, temperature and plasma bromide [1]: mild elevations | percentage morphine-positive urine ([2]; both high (>30 ng/ml) and low (<=30 ng/ml) plasma DM level groups vs placebo, FIG. 2): lower percentage morphine-positive urine | methadone dosage change ([2]; low plasma DM level group (<=30 ng/ml) vs high plasma DM group and placebo, 12 weeks add-on to methadone, FIG. 1): highest tendency of decrease of methadone use | plasma IL-6 concentration ([3]; between groups throughout 12-week treatment, FIG. 6): no significant differences | plasma IL-8 concentration ([3]; between groups throughout 12-week treatment, FIG. 7): no significant differences | plasma BDNF concentration ([3]; between groups throughout 12-week treatment, FIG. 8): no significant differences | plasma TNF-alpha concentration ([3]; both high and low plasma DM groups vs placebo): Significantly lower plasma TNF-alpha concentration | plasma IL-1beta concentration ([3]; both high and low plasma DM level groups vs placebo, FIG. 5): lower plasma IL-1beta concentration | plasma TNF-alpha concentration ([3]; low plasma DM group compared with high plasma DM group): tendency of more decrease of plasma TNF-alpha concentration | plasma CRP concentration ([3]; only in low plasma DM group, FIG. 4): lower plasma CRP concentration | HDRS score, DM vs placebo ([4]; BP I): no differences | YMRS score, DM vs placebo ([4]; BP I): no differences | YMRS score ([4]; BP I, Baseline): 8.08 ± 5.35 | YMRS score ([4]; BP I, Week 1): 8.08 ± 5.35 | YMRS score ([4]; BP I, Week 2): 7.31 ± 5.00 | YMRS score ([4]; BP I, Week 4): 5.86 ± 3.01 | YMRS score ([4]; BP I, Week 8): 6.16 ± 3.61 | YMRS score ([4]; BP I, Week 12): 5.80 ± 4.04 | CGI-therapeutic effect score, DM vs placebo ([4]; BP I, p=0.07, FIG. 10): borderline significance; also recorded: Borderline improvement | effectiveness in hypomania stage ([4]; BP II patients, dextromethorphan add-on depakine, after 8 weeks of treatment): more effective | YMRS score ([4]; BP II, Baseline): 5.77 ± 3.25 | YMRS score ([4]; BP II, Week 1): 5.60 ± 2.99 | YMRS score ([4]; BP II, Week 2): 5.88 ± 3.13 | YMRS score ([4]; BP II, Week 4): 5.60 ± 2.90 | YMRS score ([4]; BP II, Week 8 (p = 0.01 vs placebo)): 4.40 ± 2.26 | YMRS score ([4]; BP II, Week 12 (p = 0.008 vs placebo)): 4.26 ± 1.97 | YMRS score, DM vs placebo over time ([4]; BP II, F=5.68, p=0.02, FIG. 9): significant difference of YMRS score | neuroprotection with post-treatment ([5]; DM added up to 60 minutes after the addition of LPS): Significant neuroprotection | number of dopamine neurons and dendrite morphology ([5]; pretreated with DM (10 μM) before LPS stimulation): significantly more numerous and the dendrites less affected | concentration protecting dopamine neurons against LPS-induced reduction of dopamine uptake ([5]; rat primary mixed mesencephalic neuron-glia cultures): 1 to 10 µM | plasma IL-1β ([6]; BP patients, after the add-on DM treatment): decrease | plasma IL-8 level [6, 7]: significant decreasing | plasma TNF-α level [6, 7]: significant decreasing | plasma BDNF [6, 8]: no difference | plasma CRP [6, 8]: no difference

— patent publication US8785472B2, “Use of dextromethorphan in treating addictive behavior or bipolar disorder” (National Cheng Kung University, priority 2010, dated 2014)
